The source of these data is patent publication US20210395327A1, “Growth Hormone-Releasing Hormone Antagonists and Uses Thereof” (United States Government As Represented By The Department …, priority 2019, published 2021).

The structures appear in SMILES notation. Non-standard residues stand in square brackets, D forms with d. Residues, ends and D or L forms follow the SMILES beside them. *: point of attachment. Phe(F5) = N[C@@H](Cc1c(F)c(F)c(F)c(F)c1F)C(=O)O; hArg = N=C(N)NCCCC[C@H](N)C(=O)O; 12Ado = NCCCCCCCCCCCC(=O)O; Nle = CCCC[C@H](N)C(=O)O; Orn = NCCC[C@H](N)C(=O)O; Abu = CC[C@H](N)C(=O)O; PhAc = O=C(Cc1ccccc1)*

The subject of experiment [1] is breast cancer HCC-1806 xenograft. The experiment can be described thus: Xenograft tumor growth in nude mice, HCC-1806. The experiment is classed as in vivo. The following applies: Table 4K, Breast Ca HCC-1806, 5 weeks, 5 μg/day s.c. On the procedure: The peptides' activity was compared with GHRH antagonist MIA-602. All statistical analyzses were performed from comparing GHRA antagonists to non-treated tumor (control).
Peptides and chemicals. GHRH antagonists MIA-602 and AVR-GHRH antagonists (see Table 2 above) were synthesized by solid phase methods and purified by HPLC. The peptides were dissolved in DMSO and further diluted in 10% 1,2-propanediol. The final concentration of peptides was 50 µg/ml in 10% 1,2-propanediol containing 0.1% of DMSO.
Cell culture. Human cancer cell lines including pancreatic (PANC-1 and CFPAC-1), lung (HCC827 and H460), stomach (NCI-N87), prostate (PC3), brest (MX-1 and HCC-1806), colorectal (HT-29), and ovarian (SK-OV-3 and OVCAR-3) were obtained from the American Type Culture Collection (ATCC) and cultured at 37° C. in a humidified 95% air/5% CO2 atmosphere in the medium recommended by ATCC.
Xenograft models of human cancers in nude mice. Female athymic (NCr nu/nu) nude mice, 5- to 6-weeks-old, obtained from the Envigo labs (Tampa, Fla.), were housed in laminar airflow cabinets under pathogen-free conditions with a 12-h light/12-h dark schedule, and were fed autoclaved standard chow and water. To generate mice with xenografted tumors, tumor xenografts were initiated by subcutaneous (s.c.) injection of 107 human cancer cells into female nude mice. After about 4 weeks the resulting tumors were dissected and collected after removing necrosis tissues. The tumors were then cut into particles with size of 3 mm3 and transplanted s.c. by trocar needle into experimental animals. When tumors grew to the size of 50-60 mm3 (by volume), mice were randomized into groups and treated daily for 4-8 weeks by subcutaneous administration of 5 μg of GHRH antagonists MIA-602 or AVR-compounds (2-10 μg as indicated), or vehicle solutions (0.1% DMSO in 10% 1,2-propanediol) respectively. Tumor sizes were measured weekly.
Statistical analysis. One-way ANOVA followed by Bonferroni comparison were performed. Data are expressed as Mean±SEM. To determine statistical significance between animal groups, two-tailed Student's t-test was conducted. Differences were considered significant when p<0.05.
Results. […] FIG. 1A-N represents in vivo inhibition of tumor growth during the treatment with GHRH antagonist MIA-602 and selected AVR antagonists in nude mice xenografted with various human tumors including pancreatic cancer PANC-1 (FIG. 1A) and CFPAC-1 (FIG. 1I); lung cancer HCC827 (FIGS. 1B, C) and H460 (FIG. 1H); stomach cancer N87 (FIGS. 1D-F); colon cancer HT-29 (FIG. 1G); breast cancer MX-1 and HCC-1806 (FIGS. 1J, K); ovarian cancer SK-OV-3 and OVACAR-3 (FIGS. 1 L, M) and prostate cancer PC3 (FIG. 1N). See also Table 5.

In experiment [2] the test system is KATOIII stomach cancer cells. The experiment can be described thus: In vitro cell viability, KATOIII. The following applies: antagonist 5 μM for 72 h, cell proliferation assay; MIA602 = 1. Type of experiment: cell-based, human. A digest of the protocol: (§1)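 Cells grown to ~60% confluence, serum-starved 24 h in 0.5% FBS, then treated with antagonists at 1, 2.5 or 5 μM or vehicle (0.1% DMSO) in quintuplicate for 72 h, medium replaced every 48 h. Viability read by MTS-type CellTiter 96 AQueous One assay; expressed as inhibitory potency relative to MIA602.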

The next experiment concerns MX-1 breast cancer cells. The experiment can be described thus: In vitro cell viability, MX-1. The experiment is classed as cell-based, human. In outline: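 Potency is reported as percent inhibition of viability compared with the reference antagonist MIA602, measured with CellTiter 96 aqueous one solution reagent. Serum-starved cells (0.5% FBS, 24 h) were treated for 72 h, mostly at 5 μM, otherwise 2 μM.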

Experiment [3] relates to J82 urothelial cancer cells. The experiment can be described thus: In vitro cell viability, J82. Type of experiment: cell-based, human. The following applies: antagonist 5 μM for 72 h, cell proliferation assay; MIA602 = 1. A digest of the protocol:
as §1

Experiment [4] has as its system PANC-1 pancreatic cancer cells. The experiment can be described thus: In vitro cell viability, PANC-1. Type of experiment: cell-based, human. The following applies: antagonist 5 μM for 72 h, cell proliferation assay; MIA602 = 1. A digest of the protocol: as §1

Consider `CCCC[C@H](NC(=O)[C@@H](NC(=O)[C@H](CC(=O)O)NC(=O)[C@H](CCC(N)=O)NC(=O)[C@H](CC(C)C)NC(=O)[C@H](CC(C)C)NC(=O)[C@H](CCCN)NC(=O)[C@H](Cc1c[nH]cn1)NC(=O)[C@H](C)NC(=O)[C@H](CO)NC(=O)[C@H](CC(C)C)NC(=O)[C@H](CCC(N)=O)NC(=O)[C@H](CC)NC(=O)[C@H](CC(C)C)NC(=O)[C@@H](NC(=O)[C@H](CCCN)NC(=O)[C@H](Cc1c[nH]cn1)NC(=O)[C@H](Cc1ccc(OC)cc1)NC(=O)[C@H](CCCCNC(=N)N)NC(=O)[C@H](C)NC(=O)[C@@H](NC(=O)[C@H](Cc1c(F)c(F)c(F)c(F)c1F)NC(=O)[C@@H](NC(=O)[C@H](C)NC(=O)[C@H](CC(=O)O)NC(=O)[C@@H](CCCNC(=N)N)NC(=O)[C@H](Cc1ccc(O)cc1)NC(=O)CCCCCCCCCCCNC(=O)Cc1ccccc1)[C@@H](C)CC)[C@@H](C)O)C(C)C)[C@@H](C)CC)C(=O)N[C@H](CCCNC(=N)N)C(=O)N[C@@H](CCCCNC(=N)N)C(N)=O` [MIA-602, PhAC-Ada, Tyr D-Arg, Asp, Ala, Ile, 5FPhe, Thr, Ala, Har, Tyr(Me), His, Orn, Val, Leu, Abu, Gin, Leu, Ser, Ala, His, Om, Leu, Leu, Gin, Asp, Ile; Nle, D-Arg, Har NH2, reference compound] ({PhAc-12Ado}-Y[dR]DAI[Phe(F5)]TA[hArg]Y(Me)H[Orn]VL[Abu]QLSAH[Orn]LLQDI[Nle][dR][hArg]-NH2), for which the “Tumor Growth %” value in experiment [1] was 529.4%. Also, the “% Inhibition” value in experiment [1] (vs control) amounted to 55.7%. The “relative inhibitory potency in comparison to MIA-602, Stomach KATOIII” value in experiment [2] is 1. Also, the “In vitro relative inhibitory potency in comparison to MIA-602, MX-1” value with MX-1 breast cancer cells (Table 3B, 5 μM for 72 H, MIA-602 = 1) stood at 1. The “relative inhibitory potency in comparison to MIA-602, Breast MX-1” value in the experiment on MX-1 breast cancer cells (antagonist 5 μM for 72 h, cell proliferation assay, MIA602 = 1) stood at 1. Further, the “relative inhibitory potency in comparison to MIA-602, Urothelial J82” value in experiment [3] worked out at 1. For the same molecule, the “relative inhibitory potency in comparison to MIA-602, Pancreatic Panc-1” value in experiment [4] was 1.

The term % Inhibition denotes the change of the read-out against control, counted positive when it falls. A low value points to little suppression.
